# Measurements reported in patent publication US20140094505A1, “BIOMARKERS FOR ASSESSING TREATMENT OF SIALIC ACID DEFICIENCY DISEASES AND CONDITIONS” (Ultragenyx Pharmaceutical Inc., priority 2012, published 2014).
# Test system: serum biomarkers (SAT biomarkers)
# Test: Phase 2: change (delta) in serum biomarker levels between week 0 and week 24 per dosage group (placebo, 3 g/day, 6 g/day), Human Discovery MAP250+ v2.0
# Format: in vivo
# Parameters: key to overall trend, Epithelial-Derived Neutrophil-Activating Protein 78 (ENA-78) / overall trend, Lactoylglutathione lyase (LGL) / overall trend, Latency-Associated Peptide of Transforming Growth Factor beta 1 (LAP TGF-b1) / overall trend, Macrophage Colony-Stimulating Factor 1 (M-CSF) / overall trend, Matrix Metalloproteinase-9, total (MMP-9, total) / overall trend, Myoglobin / overall trend, Neuronal Cell Adhesion Molecule (Nr-CAM) / overall trend, Plasminogen Activator Inhibitor 1 (PAI-1) / overall trend, Receptor tyrosine-protein kinase erbB-3 (ErbB3) / overall trend, Vascular Endothelial Growth Factor C (VEGF-C) / overall trend, Chromogranin-A (CgA): normalization: level moved toward normal level and the change in 6 g/day group was larger compared to placebo; stabilization: level might still move away from normal level but at a slower rate in 6 g/day group compared to placebo
# Details: HIBM patients
# Method: Forty-seven (47) HIBM patient serum samples collected at week 24 from phase 2 study were tested using the Human Discovery MAP250+ v2.0 quantitative immunoassay system developed by Myriad RBM. The results were compared to the serum samples of the same 47 HIBM patients collected at week 0 (baseline) which were conducted earlier with the same immunoassay system.
# Patients were unblinded and the results were organized into the 3 assigned dosage groups, placebo (n=14), 3 g/day (n=17) and 6 g/day (n=14). The major focus of the analysis was 1) to assess changes (delta, Δ) in levels of analytes between baseline and week 24 in each dosage group, 2) whether the changes correlate to dosage levels.
# Analytes were excluded from analysis if […] of the HIBM patient samples were below least detectable dose (LDD). Within each dosage group, individual values with >5× difference to the mean of the dosage group were considered as outliers and thus removed from analysis.
# Upon treatment, levels of these analytes show an overall trend of either stabilization or normalization. […] For example, LAP TGF-b1 is an example of biomarker showing trend of normalization when the baseline level in HIBM patients is higher than normal controls, see FIG. 2. NCAM is another example of biomarker showing trend of normalization when the baseline level in HIBM patients is lower than normal controls, see FIG. 3.
smiles,measurement,setting,value
"CC(=O)N[C@H]1[C@H]([C@H](O)[C@H](O)CO)OC(O)(C(=O)O)C[C@@H]1O (stereo partly drawn) [Sialic Acid, 5-N-acetylneuraminic acid]","average Δweek 0-24 (3 g/day), Chromogranin-A (CgA)","3 g/day, week 0 to week 24",64.00 ng/mL
same,"average Δweek 0-24 (3 g/day), Epithelial-Derived Neutrophil-Activating Protein 78 (ENA-78)","3 g/day, week 0 to week 24",-0.26 ng/mL
same,"average Δweek 0-24 (3 g/day), Lactoylglutathione lyase (LGL)","3 g/day, week 0 to week 24",0.25 ng/mL
same,"average Δweek 0-24 (3 g/day), Latency-Associated Peptide of Transforming Growth Factor beta 1 (LAP TGF-b1)","3 g/day, week 0 to week 24",-0.44 ng/mL
same,"average Δweek 0-24 (3 g/day), Macrophage Colony-Stimulating Factor 1 (M-CSF)","3 g/day, week 0 to week 24",0.10 ng/mL
same,"average Δweek 0-24 (3 g/day), Matrix Metalloproteinase-9, total (MMP-9, total)","3 g/day, week 0 to week 24",449.18 ng/mL
same,"average Δweek 0-24 (3 g/day), Myoglobin","3 g/day, week 0 to week 24",-48.88 ng/mL
same,"average Δweek 0-24 (3 g/day), Neuronal Cell Adhesion Molecule (Nr-CAM)","3 g/day, week 0 to week 24",-0.07 ng/mL
same,"average Δweek 0-24 (3 g/day), Plasminogen Activator Inhibitor 1 (PAI-1)","3 g/day, week 0 to week 24",0.82 ng/mL
same,"average Δweek 0-24 (3 g/day), Receptor tyrosine-protein kinase erbB-3 (ErbB3)","3 g/day, week 0 to week 24",-0.28 ng/mL
same,"average Δweek 0-24 (3 g/day), Vascular Endothelial Growth Factor C (VEGF-C)","3 g/day, week 0 to week 24",1.35 ng/mL
same,"overall trend, Chromogranin-A (CgA)","6 g/day vs placebo, week 24",stabilization
same,"overall trend, Epithelial-Derived Neutrophil-Activating Protein 78 (ENA-78)","6 g/day vs placebo, week 24",normalization
same,"overall trend, Lactoylglutathione lyase (LGL)","6 g/day vs placebo, week 24",normalization
same,"overall trend, Latency-Associated Peptide of Transforming Growth Factor beta 1 (LAP TGF-b1)","6 g/day vs placebo, week 24",normalization
same,"overall trend, Macrophage Colony-Stimulating Factor 1 (M-CSF)","6 g/day vs placebo, week 24",stabilization
same,"overall trend, Matrix Metalloproteinase-9, total (MMP-9, total)","6 g/day vs placebo, week 24",stabilization
same,"overall trend, Myoglobin","6 g/day vs placebo, week 24",normalization
same,"overall trend, Neuronal Cell Adhesion Molecule (Nr-CAM)","6 g/day vs placebo, week 24",normalization
same,"overall trend, Plasminogen Activator Inhibitor 1 (PAI-1)","6 g/day vs placebo, week 24",normalization
same,"overall trend, Receptor tyrosine-protein kinase erbB-3 (ErbB3)","6 g/day vs placebo, week 24",stabilization
same,"overall trend, Vascular Endothelial Growth Factor C (VEGF-C)","6 g/day vs placebo, week 24",stabilization
same,"average Δweek 0-24 (6 g/day), Chromogranin-A (CgA)","6 g/day, week 0 to week 24",5.83 ng/mL
same,"average Δweek 0-24 (6 g/day), Epithelial-Derived Neutrophil-Activating Protein 78 (ENA-78)","6 g/day, week 0 to week 24",-0.42 ng/mL
same,"average Δweek 0-24 (6 g/day), Lactoylglutathione lyase (LGL)","6 g/day, week 0 to week 24",-8.27 ng/mL
same,"average Δweek 0-24 (6 g/day), Latency-Associated Peptide of Transforming Growth Factor beta 1 (LAP TGF-b1)","6 g/day, week 0 to week 24",-1.00 ng/mL
same,"average Δweek 0-24 (6 g/day), Macrophage Colony-Stimulating Factor 1 (M-CSF)","6 g/day, week 0 to week 24",0.02 ng/mL
same,"average Δweek 0-24 (6 g/day), Matrix Metalloproteinase-9, total (MMP-9, total)","6 g/day, week 0 to week 24",444.64 ng/mL
same,"average Δweek 0-24 (6 g/day), Myoglobin","6 g/day, week 0 to week 24",-38.00 ng/mL
same,"average Δweek 0-24 (6 g/day), Neuronal Cell Adhesion Molecule (Nr-CAM)","6 g/day, week 0 to week 24",0.02 ng/mL
same,"average Δweek 0-24 (6 g/day), Plasminogen Activator Inhibitor 1 (PAI-1)","6 g/day, week 0 to week 24",-0.36 ng/mL
same,"average Δweek 0-24 (6 g/day), Receptor tyrosine-protein kinase erbB-3 (ErbB3)","6 g/day, week 0 to week 24",-0.16 ng/mL
same,"average Δweek 0-24 (6 g/day), Vascular Endothelial Growth Factor C (VEGF-C)","6 g/day, week 0 to week 24",6.43 ng/mL
